US11324724B2, “N-(2,2-difluoroethyl)-N-[(pyrimidinylamino)propanyl]arylcarboxamides” (Boehringer Ingelheim International GmbH, priority 2017, dated 2022)
pIC50: −log10 of the molar value.

How the values were obtained:
[1] = target: T1, human orexin 2 receptor (Homo sapiens, UniProt O43614); assay: Assay B: in vitro testing of OX2R potency, OX2R IP1; format: cell-based; details: 0.5 nM Orexin A concentration
T1 construct: stably expressing the full-length human orexin 2 receptor; expressed in transfected cells; host or cells: CHO-K1 (CHO-K1/hOx2), co-expressing aequorin
T1 sequence (O43614 1-444): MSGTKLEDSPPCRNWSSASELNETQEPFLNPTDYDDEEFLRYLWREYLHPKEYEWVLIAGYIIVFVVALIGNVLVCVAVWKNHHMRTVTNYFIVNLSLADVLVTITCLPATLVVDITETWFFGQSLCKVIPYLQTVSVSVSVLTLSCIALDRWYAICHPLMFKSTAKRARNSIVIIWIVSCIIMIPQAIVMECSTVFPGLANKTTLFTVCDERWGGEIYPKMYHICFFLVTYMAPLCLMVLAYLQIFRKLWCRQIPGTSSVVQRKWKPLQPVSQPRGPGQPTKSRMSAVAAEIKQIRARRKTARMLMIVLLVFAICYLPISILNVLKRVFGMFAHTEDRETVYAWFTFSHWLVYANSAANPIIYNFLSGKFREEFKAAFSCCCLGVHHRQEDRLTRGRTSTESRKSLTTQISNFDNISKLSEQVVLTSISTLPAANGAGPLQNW
Source text: (§1) Activation of the orexin receptors expressed in cell lines results in an increase in intracellular IP3 concentration. IP1, a downstream metabolite of IP3, accumulates in cells following receptor activation and is stable in the presence of LiCl. Using Homogeneous Time-Resolved Fluorescence technology with Lumi4-Tb cryptate (commercially available from Cisbio Bioassay.) and a suitable fluorescence plate reader. This functional response is detectable and quantifiable as described in Trinquet et al. Anal. Biochem. 2006, 358, 126-135, Degorce et al. Curr. Chem. Genomics 2009, 3, 22-32. This technique is used to characterize pharmacological modification of the orexin receptors.
B. In Vitro Testing of OX2R Potency: OX2R IP1
IP1 measurements are performed in CHO-K1 cells stably expressing the full-length human orexin 2 receptor and the aequorin photoprotein. Cells are cultivated in Ham's nutrient mixture F12 medium with 10% fetal calf serum, in a 37° C., 95% humidity and 5% CO2 incubator. The CHO-K1/hOx2 cell mass is expanded to larger cell numbers. The cells are obtained as frozen cells in cryo-vials and stored until use at −150° C. The viability of the cells after thawing is >90%. In preparation for the assay, 24 hours before the assay, the cells are thawed at 37° C. and immediately diluted with cell culture medium. After centrifugation, the cell pellet is resuspended in medium and then distributed into the assay plates with a density of 5000 cells/25 μper well. The plates are incubated for one hour at room temperature to reduce edge effects before they are incubated for 24 hours at 37° C./5% CO2. Compounds are prepared by a 8-point serial dilution in DMSO and a final dilution step into assay buffer (HBSS with 20 mM HEPES, 0.1% BSA and 50 mM LiCl, pH 7.4) to ensure a final DMSO concentration of 1% in the assay. On the day of the assay, cells in the plate are washed twice with 60 μL assay buffer (20 μL buffer remained in the wells after washing), followed by adding 5 μL per well of compounds diluted in assay buffer. After 15 minutes of incubation at room temperature 5 μL per well of Orexin A peptide (final concentration: 0.5 nM) dissolved in assay buffer is added to the assay plate. The assay plate is incubated for 60 minutes at 37° C. Then 5 μl per well of Anti-IP1-Cryptate Tb solution and 5 μl per well of IP1-d2 dilution are added to all well of the plate and the plate is incubated for a further 60 minutes light protected at room temperature. The emission at 615 nm and 665 nm (Excitation wavelength: 320 nm) are measured using an EnVision reader (PerkinElmer). The ratio between the emission at 665 nm and 615 is calculated by the reader.
(§2) 8-point four parametric non-linear curve fitting and determination of IC50 values and Hill slopes is performed using a regular analysis software e.g. AssayExplorer (Accelrys). In order to establish an agonist concentration independent parameter, Kb values are calculated using the following equation: IC50/((2+(A/EC50)^n)^1/n−1) (with A=concentration agonist, EC50=EC50 agonist, n=Hill slope agonist) (see P. Leff, I. G. Dougall, Trends Pharmacol. Sci. 1993, 14(4),110-112).

[2] = test system: human MDR1 P-gp; assay: Assay D: efflux in MDCK cells transfected with the human MDR1 gene; format: in vitro ADME, canine; details: dog; MDCK-MDR1, pH 7.4, 37° C.; read-out: Assay D: MDCK efflux ratio (BA/AB)
Description: The MDCK assay provides information on the potential of a compound to pass the blood brain barrier. Permeability measurements across polarized, confluent MDCK-MDR1 cell monolayers grown on permeable filter supports are used as an in vitro absorption model: apparent permeability coefficients (PE) of the compounds across the MDCK-MDR1 cell monolayers are measured (pH 7.4, 37° C.) in apical-to-basal (AB) and basal-to-apical (BA) transport direction.
The AB permeability (PEAB) represents drug absorption from the blood into the brain and the BA permeability (PEBA) drug efflux from the brain back into the blood via both, passive permeability as well as active transport mechanisms mediated by efflux and uptake transporters that are expressed on the MDCK-MDR1 cells, predominantly by the overexpressed human MDR1 P-gp. Identical or similar permeabilities in both transport directions indicate passive permeation, vectorial permeability points to additional active transport mechanisms. Higher PEBA than PEAB (PEBA/PEAB>5) indicates the involvement of active efflux mediated by MDR1 P-gp, which might compromises the goal to achieve sufficient brain exposure. Therefore this assay provides valuable support for selection of compounds applicable for further in vivo testing. High permeability not limited by efflux at the blood brain barrier is a favourable characteristic for compounds that are to be used for drugs acting primarily in the CNS
D. Assessment of Efflux in Madin-Darby Canine Kidney (MDCK) Cells Transfected with the Human MDR1 Gene
Apparent permeability coefficients (PE) of the compounds across the MDCK-MDR1 cell monolayers are measured (pH 7.4, 37° C.) in apical-to-basal (AB) and basal-to-apical (BA) transport direction. AB permeability (PEAB) represents drug absorption from the blood into the brain and BA permeability (PEBA) drug efflux from the brain back into the blood via both passive permeability as well as active transport mechanisms mediated by efflux and uptake transporters that are expressed on the MDCK-MDR1 cells, predominantly by the overexpressed human MDR1 P-gp. The compounds are assigned to permeability/absorption classes by comparison of the AB permeabilities with the AB permeabilities of reference compounds with known in vitro permeability and oral absorption in the human. Identical or similar permeabilities in both transport directions indicate passive permeation, vectorial permeability points to additional active transport mechanisms. Higher PEBA than PEAB indicates the involvement of active efflux mediated by MDR1 P-gp. Active transport is concentration-dependently saturable.
MDCK-MDR1 cells (1-2×10 e5 cells/1 cm2 area) are seeded on filter inserts (Costar transwell polycarbonate or PET filters, 0.4 μm pore size) and cultured (DMEM) for 7 days. Subsequently, the MDR1 expression is boosted by culturing the cells with 5 mM sodium butyrate in full medium for 2 days. Compounds are dissolved in appropriate solvent (like DMSO, 1-20 mM stock solutions). Stock solutions are diluted with HTP-4 buffer (128.13 mM NaCl, 5.36 mM KCl, 1 mM MgSO4, 1.8 mM CaCl2, 4.17 mM NaHCO3, 1.19 mM Na2HPO4×7H2O, 0.41 mM NaH2PO4×H2O, 15 mM HEPES, 20 mM glucose, 0.25% BSA, pH 7.4) to prepare the transport solutions (0.1-300 μM compound, final DMSO<=0.5%). The transport solution (TL) is applied to the apical or basolateral donor side for measuring A-B or B-A permeability (3 filter replicates), respectively. The receiver side contains the same buffer as the donor side. Samples are collected at the start and end of experiment from the donor and at various time intervals for up to 2 hours also from the receiver side for concentration measurement by HPLC-MS/MS or scintillation counting. Sampled receiver volumes are replaced with fresh receiver solution.

[3] = Assay C: metabolic stability in human liver microsomes (Human MST); format: in vitro ADME; details: pH 7.6, pooled human liver microsomes, 37° C., read-out: Assay C: Human MST t1/2
Description: C. Assessment of Metabolic Stability in Human Liver Microsomes (Human MST)
The metabolic stability of the compounds according to the invention may be investigated as follows:
The metabolic degradation of the test compound is assayed at 37° C. with pooled human liver microsomes. The final incubation volume of 100 μL per time point contains TRIS buffer pH 7.6 at room temperature (0.1 M), MgCl2 (5 mM), microsomal protein (1 mg/mL) and the test compound at a final concentration of 1 μM. Following a short pre-incubation period at 37° C., the reactions are initiated by addition of beta-nicotinamide adenine dinucleotide phosphate, reduced form (NADPH, 1 mM), and terminated by transferring an aliquot into solvent after different time points. After centrifugation (10000 g, 5 min), an aliquot of the supernatant is assayed by LC-MS/MS for the amount of parent compound. The half-life (t1/2) is determined by the slope of the semi-logarithmic plot of the concentration-time profile.

[4] = target: T2, human Orexin 1 receptor (Homo sapiens, UniProt O43613); assay: Assay A: in vitro testing of OX1R potency, OX1R IP1; format: cell-based; details: for Kb: 0.5 nM Orexin A concentration; for OX2R Kb/OX1R Kb: selectivity ratio of Assay B and Assay A Kb
T2 construct: stably expressing the full-length human Orexin 1 receptor; expressed in transfected cells; host or cells: CHO-K1 (CHO-K1/hOx1), co-expressing aequorin
T2 sequence (O43613 1-425): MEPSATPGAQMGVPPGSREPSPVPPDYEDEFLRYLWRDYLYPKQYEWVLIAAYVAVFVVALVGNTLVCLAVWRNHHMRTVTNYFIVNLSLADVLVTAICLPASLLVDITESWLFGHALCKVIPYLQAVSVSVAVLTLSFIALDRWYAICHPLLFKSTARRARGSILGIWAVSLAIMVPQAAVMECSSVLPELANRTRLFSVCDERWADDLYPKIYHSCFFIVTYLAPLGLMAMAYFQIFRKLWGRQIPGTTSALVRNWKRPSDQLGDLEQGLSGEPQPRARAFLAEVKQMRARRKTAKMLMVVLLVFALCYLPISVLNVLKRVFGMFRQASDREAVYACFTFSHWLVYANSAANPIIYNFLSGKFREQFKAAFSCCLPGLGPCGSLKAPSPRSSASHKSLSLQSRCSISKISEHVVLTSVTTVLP
Source text: as §1
A. In Vitro Testing of OX1R Potency: OX1R IP1
IP1 measurements are performed in CHO-K1 cells stably expressing the full-length human Orexin 1 receptor and the aequorin photoprotein. Cells are cultivated in Ham's nutrient mixture F12 medium with 10% fetal calf serum, in a 37° C., 95% humidity and 5% CO2 incubator. The CHO-K1/hOx1 cell mass is expanded to larger cell numbers. The cells are obtained as frozen cells in cryo-vials and stored until use at −150° C. The viability of the cells after thawing is >90%. In preparation for the assay, 24 hours before the assay, the cells are thawed at 37° C. and immediately diluted with cell culture medium. After centrifugation, the cell pellet is re-suspended in medium and then distributed into the assay plates with a density of 10000 cells/25 μL per well. The plates are incubated for one hour at room temperature to reduce edge effects before they are incubated for 24 hours at 37° C./5% CO2. Compounds are prepared by an 8-point serial dilution in DMSO and a final dilution step into assay buffer (HBSS with 20 mM HEPES, 0.1% BSA and 50 mM LiCl, pH 7.4) to ensure a final DMSO concentration of 1% in the assay.
On the day of the assay, cells in the plate are washed twice with 60 μL assay buffer (20 μL buffer remained in the wells after washing), followed by adding 5 μL per well of compounds diluted in assay buffer. After 15 minutes of incubation at room temperature 5 μL per well of Orexin A peptide (final concentration: 0.5 nM, and/or 50 nM) dissolved in assay buffer is added to the assay plate. The assay plate is incubated for 60 minutes at 37° C. Then 5 μl per well of Anti-IP1-Cryptate Tb solution and 5 μl per well of IP1-d2 dilution are added and the plate is incubated for a further 60 minutes light protected at room temperature. The emissions at 615 nm and 665 nm (Excitation wavelength: 320 nm) are measured using an EnVision reader (PerkinElmer). The ratio between the emission at 665 nm and 615 is calculated by the reader.
as §2

[5] = target: T3, OX2R (Homo sapiens, UniProt O43614); details: cited from earlier work
T3 sequence (O43614 1-444): T1 sequence (O43614 1-444)

Structure (SMILES)	Kb [1] [nM]	efflux ratio [2]	half-life at 1 μM [3] [h]	Kb [4] [nM]	OX2R Kb/OX1R Kb [4]	OX2R pIC50 ([5]; as described in WO2016/034882, Table 3)	pIC50 ([5]; corresponds to pIC50 of WO2016/034882, Table 3)
C[C@@H](CNc1ncc(C(F)(F)F)cn1)N(CC(F)F)C(=O)c1cccc(F)c1-c1ncccn1 [Example 3]	108	< 3	> 2.17	0.19	568		
C[C@@H](CNc1ncc(C(F)(F)F)cn1)N(CC(F)F)C(=O)c1cccc(F)c1-n1nccn1 [Example 2]	87.1	< 3	> 2.17	0.63	138		
C[C@@H](CNc1ncc(C(F)(F)F)cn1)N(CC(F)F)C(=O)c1cc(F)ccc1-c1ncccn1 [Example 4]	70.8	< 3	> 2.17	0.42	169		
C[C@@H](CNc1ncc(C(F)(F)F)cn1)N(CC(F)F)C(=O)c1cc(F)cc(F)c1-n1nccn1 [Example 1]	251	< 3	> 2.17	1.17	214		
CC[C@@H](CNc1ncc(C(F)(F)F)cn1)N(C)C(=O)c1nc(C)ccc1-c1ncccn1 [Ex 84 in WO2016/ 034882, reference compound]		< 3					
C[C@@H](CNc1ncc(C(F)(F)F)cn1)N(CC(F)F)C(=O)c1c(F)cccc1-c1ncccn1 [Example 5]	143	< 3	> 2.17	0.67	213		
CC[C@@H](CNc1ncc(C(F)(F)F)cn1)N(C)C(=O)c1c(F)cccc1-n1nccn1 [Ex 91 in WO2016/ 034882]		< 3	> 2.17			< 5.1	≤ 5.10
